According to patent US10597388B2, “Pyridazinone herbicides” (FMC CORPORATION, priority 2014, dated 2020):

Key:
Experiment in all cases: Test D controlled growth environment herbicide test, pre- and postemergence
Assay type in all cases: in vivo
[1] = test system: bluegrass (annual bluegrass, Poa annua)
Method in brief: (§1)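 Pre-emergence: seeds sown in silt loam soil were sprayed with compound in a non-phytotoxic solvent mix containing surfactant. Post-emergence: plants at 2 to 18 cm (1- to 4-leaf stage) in peat moss/vermiculite medium got the same formulation. Visual 0–100 rating versus controls after 14 to 21 d.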

[2] = test system: barley, spring (spring barley, Hordeum vulgare)
Method in brief: as §1

kochia (Kochia scoparia) = test system: kochia (Kochia scoparia)
Method in brief: as §1

[3] = test system: chamomile (scentless chamomile, Matricaria inodora)
Method in brief: as §1

[4] = test system: lambsquarters (Chenopodium album)
Method in brief: as §1

[5] = test system: canarygrass (Phalaris minor)
Method in brief: as §1

[6] = test system: barley, winter (winter barley, Hordeum vulgare)
Method in brief: as §1

[7] = test system: galium (catchweed bedstraw, Galium aparine)
Method in brief: as §1

[8] = test system: speedwell (bird's-eye speedwell, Veronica persica)
Method in brief: as §1

[9] = test system: bromegrass, downy (downy bromegrass, Bromus tectorum)
Method in brief: as §1

[10] = test system: oat, wild (wild oat, Avena fatua)
Method in brief: as §1

[11] = test system: mustard, wild (wild mustard, Sinapis arvensis)
Method in brief: as §1

[12] = test system: foxtail, green (green foxtail, Setaria viridis)
Method in brief: as §1

[13] = Postemergence, 31 g ai/ha, scale 0 to 100 (0 no effect, 100 complete control)
[14] = Postemergence, 125 g ai/ha, visual rating on scale 0 (no effect) to 100 (complete control), 14 to 21 d
[15] = Postemergence, 250 g ai/ha, scale 0 to 100 (0 no effect, 100 complete control)
[16] = Preemergence, 62 g ai/ha, scale 0 to 100 (0 no effect, 100 complete control)
[17] = Preemergence, 125 g ai/ha, scale 0 to 100 (0 no effect, 100 complete control)
[18] = Preemergence, 250 g ai/ha, scale 0 to 100 (0 no effect, 100 complete control)
[19] = postemergence, 62 g ai/ha, scale 0 to 100, 0 no effect, 100 complete control

CCOC(=O)Oc1c(C)nn(C)c(=O)c1-c1c(C)ccc2ccccc12 [Compound 73]
Bluegrass plant response rating [1, 13]: 15 | Plant response rating, Bluegrass [1, 14]: 55 | Plant response rating, Bluegrass [1, 15]: 65 | Plant response rating (scale of 0 to 100), Bluegrass ([1]; Preemergence, 31 g ai/ha): 15 | Plant response rating, Bluegrass [1, 16]: 35 | Plant response rating, Bluegrass [1, 17]: 35 | Plant response rating, Bluegrass [1, 18]: 30 | Plant response rating, Bluegrass [1, 19]: 30 | Barley, Spring plant response rating [2, 13]: 10 | Plant response rating, Barley, Spring [2, 14]: 30 | Plant response rating, Barley, Spring [2, 15]: 40 | Plant response rating (scale of 0 to 100), Barley, Spring ([2]; Preemergence, 31 g ai/ha): 0 | Plant response rating, Barley, Spring [2, 16]: 10 | Plant response rating, Barley, Spring [2, 17]: 0 | Plant response rating, Barley, Spring [2, 18]: 60 | Plant response rating, Barley, Spring [2, 19]: 25 | Kochia plant response rating (kochia (Kochia scoparia); [13]): 100 | Plant response rating, Kochia (kochia (Kochia scoparia); [14]): 100 | Plant response rating, Kochia (kochia (Kochia scoparia); [15]): 100 | Plant response rating (scale of 0 to 100), Kochia (kochia (Kochia scoparia); Preemergence, 31 g ai/ha): 30 | Plant response rating, Kochia (kochia (Kochia scoparia); [16]): 30 | Plant response rating, Kochia (kochia (Kochia scoparia); [17]): 85 | Plant response rating, Kochia (kochia (Kochia scoparia); [18]): 95 | Plant response rating, Kochia (kochia (Kochia scoparia); [19]): 80 | Chamomile plant response rating [3, 13]: 70 | Plant response rating, Chamomile [3, 14]: 90 | Plant response rating, Chamomile [3, 15]: 100 | Plant response rating, Chamomile [3, 19]: 85 | Lambsquarters plant response rating [4, 13]: 95 | Plant response rating, Lambsquarters [4, 14]: 100 | Plant response rating, Lambsquarters [4, 15]: 100 | Plant response rating (scale of 0 to 100), Lambsquarters ([4]; Preemergence, 31 g ai/ha): 95 | Plant response rating, Lambsquarters [4, 16]: 95 | Plant response rating, Lambsquarters [4, 17]: 95 | Plant response rating, Lambsquarters [4, 18]: 100 | Plant response rating, Lambsquarters [4, 19]: 95 | Canarygrass plant response rating [5, 13]: 60 | Plant response rating, Canarygrass [5, 14]: 80 | Plant response rating, Canarygrass [5, 15]: 90 | Plant response rating (scale of 0 to 100), Canarygrass ([5]; Preemergence, 31 g ai/ha): 80 | Plant response rating, Canarygrass [5, 16]: 85 | Plant response rating, Canarygrass [5, 17]: 90 | Plant response rating, Canarygrass [5, 18]: 100 | Plant response rating, Canarygrass [5, 19]: 70 | Barley, Winter plant response rating [6, 13]: 15 | Plant response rating, Barley, Winter [6, 14]: 20 | Plant response rating, Barley, Winter [6, 15]: 35 | Plant response rating (scale of 0 to 100), Barley, Winter ([6]; Preemergence, 31 g ai/ha): 5 | Plant response rating, Barley, Winter [6, 16]: 40 | Plant response rating, Barley, Winter [6, 17]: 60 | Plant response rating, Barley, Winter [6, 18]: 75 | Plant response rating, Barley, Winter [6, 19]: 15 | Galium plant response rating [7, 13]: 95 | Plant response rating, Galium [7, 14]: 100 | Plant response rating, Galium [7, 15]: 100 | Plant response rating (scale of 0 to 100), Galium ([7]; Preemergence, 31 g ai/ha): 40 | Plant response rating, Galium [7, 16]: 80 | Plant response rating, Galium [7, 17]: 80 | Plant response rating, Galium [7, 18]: 90 | Plant response rating, Galium [7, 19]: 100 | Speedwell plant response rating [8, 13]: 70 | Plant response rating, Speedwell [8, 14]: 100 | Plant response rating, Speedwell [8, 15]: 100 | Plant response rating (scale of 0 to 100), Speedwell ([8]; Preemergence, 31 g ai/ha): 100 | Plant response rating, Speedwell [8, 16]: 100 | Plant response rating, Speedwell [8, 17]: 100 | Plant response rating, Speedwell [8, 18]: 100 | Plant response rating, Speedwell [8, 19]: 100 | Bromegrass, Downy plant response rating [9, 13]: 25 | Plant response rating, Bromegrass, Downy [9, 14]: 70 | Plant response rating, Bromegrass, Downy [9, 15]: 85 | Plant response rating (scale of 0 to 100), Bromegrass, Downy ([9]; Preemergence, 31 g ai/ha): 20 | Plant response rating, Bromegrass, Downy [9, 16]: 40 | Plant response rating, Bromegrass, Downy [9, 17]: 50 | Plant response rating, Bromegrass, Downy [9, 18]: 90 | Plant response rating, Bromegrass, Downy [9, 19]: 55 | Oat, Wild plant response rating [10, 13]: 85 | Plant response rating, Oat, Wild [10, 14]: 95 | Plant response rating, Oat, Wild [10, 15]: 100 | Plant response rating (scale of 0 to 100), Oat, Wild ([10]; Preemergence, 31 g ai/ha): 75 | Plant response rating, Oat, Wild [10, 16]: 90 | Plant response rating, Oat, Wild [10, 17]: 85 | Plant response rating, Oat, Wild [10, 18]: 100 | Plant response rating, Oat, Wild [10, 19]: 95 | Mustard, Wild plant response rating [11, 13]: 85 | Plant response rating, Mustard, Wild [11, 14]: 100 | Plant response rating, Mustard, Wild [11, 15]: 100 | Plant response rating (scale of 0 to 100), Mustard, Wild ([11]; Preemergence, 31 g ai/ha): 65 | Plant response rating, Mustard, Wild [11, 16]: 80 | Plant response rating, Mustard, Wild [11, 17]: 100 | Plant response rating, Mustard, Wild [11, 18]: 100 | Plant response rating, Mustard, Wild [11, 19]: 100 | Foxtail, Green plant response rating [12, 13]: 65 | Plant response rating, Foxtail, Green [12, 14]: 75 | Plant response rating, Foxtail, Green [12, 15]: 80 | Plant response rating (scale of 0 to 100), Foxtail, Green ([12]; Preemergence, 31 g ai/ha): 15 | Plant response rating, Foxtail, Green [12, 16]: 20 | Plant response rating, Foxtail, Green [12, 17]: 50 | Plant response rating, Foxtail, Green [12, 18]: 100 | Plant response rating, Foxtail, Green [12, 19]: 70
